Laboratory results: the NIST ThermoML archive (doi:10.1021/je7003929)

Assay: xn = mol fraction of the nth substance listed
Details: Liquid, Vibrating tube method

c1ccc2sccc2c1 [benzo[b]thiophene] + CCCCCC
Details	mass density [kg/m3]
322.95 K, 1028 kPa, x2 = 0.0629	1103.4
322.95 K, 2021 kPa, x2 = 0.0629	1104.1
322.95 K, 3029 kPa, x2 = 0.0629	1104.7
322.95 K, 4021 kPa, x2 = 0.0629	1105.4
322.95 K, 5037 kPa, x2 = 0.0629	1106.1
322.95 K, 6021 kPa, x2 = 0.0629	1106.7
322.95 K, 7021 kPa, x2 = 0.0629	1107.4
322.95 K, 8029 kPa, x2 = 0.0629	1108.1
322.95 K, 9018 kPa, x2 = 0.0629	1108.7
322.95 K, 10003 kPa, x2 = 0.0629	1109.3
322.95 K, 10998 kPa, x2 = 0.0629	1109.9
322.95 K, 12016 kPa, x2 = 0.0629	1110.6
322.95 K, 13012 kPa, x2 = 0.0629	1111.2
322.95 K, 14019 kPa, x2 = 0.0629	1111.8
322.95 K, 15018 kPa, x2 = 0.0629	1112.5
322.95 K, 16018 kPa, x2 = 0.0629	1113.1
322.95 K, 17024 kPa, x2 = 0.0629	1113.7
322.95 K, 18018 kPa, x2 = 0.0629	1114.4
322.95 K, 19024 kPa, x2 = 0.0629	1115
322.95 K, 20012 kPa, x2 = 0.0629	1115.6
323.02 K, 1017 kPa, x2 = 0.7491	752.7
323.02 K, 2013 kPa, x2 = 0.7491	753.8
323.02 K, 3014 kPa, x2 = 0.7491	754.9
323.02 K, 4012 kPa, x2 = 0.7491	756
323.02 K, 5008 kPa, x2 = 0.7491	757.1
323.02 K, 6010 kPa, x2 = 0.7491	758.1
323.02 K, 7025 kPa, x2 = 0.7491	759.2
323.02 K, 8028 kPa, x2 = 0.7491	760.2
323.02 K, 9009 kPa, x2 = 0.7491	761.2
323.02 K, 10010 kPa, x2 = 0.7491	762.2
323.02 K, 11002 kPa, x2 = 0.7491	763.2
323.02 K, 12017 kPa, x2 = 0.7491	764.1
323.02 K, 13019 kPa, x2 = 0.7491	765.1
323.02 K, 14006 kPa, x2 = 0.7491	766
323.02 K, 15015 kPa, x2 = 0.7491	767
323.02 K, 16022 kPa, x2 = 0.7491	767.9
323.02 K, 17019 kPa, x2 = 0.7491	768.8
323.02 K, 18016 kPa, x2 = 0.7491	769.8
323.02 K, 19024 kPa, x2 = 0.7491	770.6
323.02 K, 20021 kPa, x2 = 0.7491	771.5
323.09 K, 1017 kPa, x2 = 0.9432	659.3
323.09 K, 2024 kPa, x2 = 0.9432	660.6
323.09 K, 3024 kPa, x2 = 0.9432	661.9
323.09 K, 4016 kPa, x2 = 0.9432	663.1
323.09 K, 5024 kPa, x2 = 0.9432	664.2
323.09 K, 6021 kPa, x2 = 0.9432	665.5
323.09 K, 7018 kPa, x2 = 0.9432	666.6
323.09 K, 8020 kPa, x2 = 0.9432	667.8
323.09 K, 9019 kPa, x2 = 0.9432	668.9
323.09 K, 10010 kPa, x2 = 0.9432	670
323.09 K, 11012 kPa, x2 = 0.9432	671.1
323.09 K, 12013 kPa, x2 = 0.9432	672.2
323.09 K, 13021 kPa, x2 = 0.9432	673.3
323.09 K, 14023 kPa, x2 = 0.9432	674.3
323.09 K, 15015 kPa, x2 = 0.9432	675.3
323.09 K, 16001 kPa, x2 = 0.9432	676.3
323.09 K, 17028 kPa, x2 = 0.9432	677.3
323.09 K, 18003 kPa, x2 = 0.9432	678.3
323.09 K, 19001 kPa, x2 = 0.9432	679.3
323.09 K, 20017 kPa, x2 = 0.9432	680.3
332.66 K, 1020 kPa, x2 = 0.2588	991.1
332.66 K, 2021 kPa, x2 = 0.2588	991.9
332.66 K, 3022 kPa, x2 = 0.2588	992.7
332.66 K, 4018 kPa, x2 = 0.2588	993.5
332.66 K, 5021 kPa, x2 = 0.2588	994.3
332.66 K, 6012 kPa, x2 = 0.2588	995
332.66 K, 7018 kPa, x2 = 0.2588	995.8
332.66 K, 8005 kPa, x2 = 0.2588	996.6
332.66 K, 9012 kPa, x2 = 0.2588	997.3
332.66 K, 10011 kPa, x2 = 0.2588	998.2
332.66 K, 11013 kPa, x2 = 0.2588	998.9
332.66 K, 12006 kPa, x2 = 0.2588	999.7
332.66 K, 13011 kPa, x2 = 0.2588	1000.4
332.66 K, 14000 kPa, x2 = 0.2588	1001.2
332.66 K, 15025 kPa, x2 = 0.2588	1002
332.66 K, 16005 kPa, x2 = 0.2588	1002.6
332.66 K, 17000 kPa, x2 = 0.2588	1003.3
332.66 K, 18002 kPa, x2 = 0.2588	1004.1
332.66 K, 19009 kPa, x2 = 0.2588	1004.8
332.66 K, 20016 kPa, x2 = 0.2588	1005.5
332.77 K, 1019 kPa, x2 = 0.0629	1094.5
332.77 K, 2029 kPa, x2 = 0.0629	1095.3
332.77 K, 3030 kPa, x2 = 0.0629	1096
332.77 K, 4019 kPa, x2 = 0.0629	1096.7
332.77 K, 5026 kPa, x2 = 0.0629	1097.4
332.77 K, 6037 kPa, x2 = 0.0629	1098.1
332.77 K, 7035 kPa, x2 = 0.0629	1098.8
332.77 K, 8021 kPa, x2 = 0.0629	1099.5
332.77 K, 9012 kPa, x2 = 0.0629	1100.1
332.77 K, 10008 kPa, x2 = 0.0629	1100.8
332.77 K, 11026 kPa, x2 = 0.0629	1101.5
332.77 K, 12020 kPa, x2 = 0.0629	1102.2
332.77 K, 13012 kPa, x2 = 0.0629	1102.8
332.77 K, 14016 kPa, x2 = 0.0629	1103.4
332.77 K, 15015 kPa, x2 = 0.0629	1104.2
332.77 K, 16015 kPa, x2 = 0.0629	1104.7
332.77 K, 17020 kPa, x2 = 0.0629	1105.4
332.77 K, 18020 kPa, x2 = 0.0629	1106.1
332.77 K, 19022 kPa, x2 = 0.0629	1106.7
332.77 K, 20017 kPa, x2 = 0.0629	1107.3
332.82 K, 1026 kPa, x2 = 0.9432	650.1
332.82 K, 2016 kPa, x2 = 0.9432	651.4
332.82 K, 3016 kPa, x2 = 0.9432	652.8
332.82 K, 4023 kPa, x2 = 0.9432	654.1
332.82 K, 5004 kPa, x2 = 0.9432	655.4
332.82 K, 6016 kPa, x2 = 0.9432	656.7
332.82 K, 7012 kPa, x2 = 0.9432	658
332.82 K, 8018 kPa, x2 = 0.9432	659.2
332.82 K, 9014 kPa, x2 = 0.9432	660.5
332.82 K, 10014 kPa, x2 = 0.9432	661.6
332.82 K, 11009 kPa, x2 = 0.9432	662.8
332.82 K, 12005 kPa, x2 = 0.9432	664
332.82 K, 13020 kPa, x2 = 0.9432	665.1
332.82 K, 14007 kPa, x2 = 0.9432	666.3
332.82 K, 15005 kPa, x2 = 0.9432	667.3
332.82 K, 16012 kPa, x2 = 0.9432	668.4
332.82 K, 17015 kPa, x2 = 0.9432	669.5
332.82 K, 18010 kPa, x2 = 0.9432	670.6
332.82 K, 19000 kPa, x2 = 0.9432	671.6
332.82 K, 20001 kPa, x2 = 0.9432	672.6
332.86 K, 1031 kPa, x2 = 0.7491	743.7
332.86 K, 2024 kPa, x2 = 0.7491	744.9
332.86 K, 3019 kPa, x2 = 0.7491	746.1
332.86 K, 4001 kPa, x2 = 0.7491	747.2
332.86 K, 5002 kPa, x2 = 0.7491	748.4
332.86 K, 6020 kPa, x2 = 0.7491	749.5
332.86 K, 7005 kPa, x2 = 0.7491	750.6
332.86 K, 8013 kPa, x2 = 0.7491	751.7
332.86 K, 9004 kPa, x2 = 0.7491	752.8
332.86 K, 10000 kPa, x2 = 0.7491	753.8
332.86 K, 11019 kPa, x2 = 0.7491	754.9
332.86 K, 12006 kPa, x2 = 0.7491	755.9
332.86 K, 13014 kPa, x2 = 0.7491	757
332.86 K, 14008 kPa, x2 = 0.7491	757.9
332.86 K, 15007 kPa, x2 = 0.7491	758.9
332.86 K, 16009 kPa, x2 = 0.7491	759.9
332.86 K, 17002 kPa, x2 = 0.7491	760.9
332.86 K, 18026 kPa, x2 = 0.7491	761.8
332.86 K, 19007 kPa, x2 = 0.7491	762.8
332.86 K, 20017 kPa, x2 = 0.7491	763.7
